Laboratory results from patent EP4818185A1, “CRYSTAL FORMS OF 20(S)-PROTOPANAXADIOL, PREPARATION METHOD THEREFOR AND USE THEREOF” (Shanghai Baocheng Tailai Technology Co., Ltd., priority 2023, dated 2025).
Values after ≈ are worked out from the molar mass of the structure shown. Values joined by “and” are separate entries in the source; they are usually repeats but may differ in a detail not shown here. Identical values can stand only once.

Assays:
[1] = Hygroscopicity test (dynamic vapor sorption, DVS); format: physicochemical; settings: for Hygroscopic weight gain at 25°C/80% RH (%): DVS; for hygroscopicity: class per Chinese Pharmacopoeia 2020 edition definition
Description: The dynamic vapor sorption-desorption (DVS) curves of each sample were tested and plotted, respectively, and the experimental results are shown in table 5, wherein, the DVS profile of the crystal form A in Example 2 is shown in figure 7, the DVS profile of the crystal form B in Example 5 is shown in figure 8, and the DVS profile of the crude 20(S)-protopanaxadiol in Example 1 is shown in figure 9.
Regarding the description of hygroscopicity characteristics and the definition of hygroscopic weight gain (Guidelines for Hygroscopicity Test of Drugs, Chinese Pharmacopoeia 2020 Edition): • Deliquescent: Absorbing sufficient moisture to form a liquid • Highly hygroscopic: Hygroscopic weight gain of not less than 15% • Hygroscopic: Hygroscopic weight gain of less than 15% but not less than 2% • Slightly hygroscopic: Hygroscopic weight gain of less than 2% but not less than 0.2% • Non-hygroscopic or almost non-hygroscopic: Hygroscopic weight gain of less than 0.2%.

[2] = Bulk density and tap density test; format: physicochemical; settings: for Average bulk density / Average tap density: average of three parallel tests; for Average tap density: tapped 200 times; for Bulk density: single tests No. 1-3, approx. 800 mg in 5 mL graduated cylinder; for Tap density: single tests No. 1-3, tapped 200 times
Description: Approximately 800 mg of each test sample was taken, and added into a 5 mL graduated cylinder, respectively, and the volume at this point was recorded. The graduated cylinder was lightly tapped against the tabletop 200 times, and the volume at this point was recorded. Three parallel tests were performed.

[3] = Repose angle test (funnel, cone); format: physicochemical; settings: for Average repose angle (°): average of three parallel tests; for Repose angle (°): single tests No. 1-3, calculated from cone height and diameter
Description: An appropriate amount of each test sample was taken. A funnel was fixed on an iron stand and positioned perpendicularly to the tabletop. The crystal form A and crystal form B samples were added into the funnel, respectively, allowing the sample to freely fall to form a cone. The height and diameter of the cone were measured to calculate the repose angle. Three parallel tests were performed. […]

[4] = Mechanical stability test (grinding, tableting); format: physicochemical; settings: for crystal form after grinding: manually ground in agate mortar for about 3 minutes; for crystal form after tableting / crystallinity degree after tableting: tableting under a pressure of 200 MPa
Description: An appropriate amount of each test sample was taken, placed respectively in an agate mortar, and manually ground for about 3 minutes, then, the crystal form was measured.
An appropriate amount of each test sample was taken, and added respectively into a tablet press. The crystal form was measured after tableting under a pressure of 200 MPa.

[5] = Solid-state stability test (XRPD crystal form, HPLC purity); format: physicochemical; settings: for crystal form transformation (XRPD): under three conditions: 80°C sealed 1 day, 25°C/60% RH and 40°C/75% RH open 1 month
Description: An appropriate amount of each test sample was weighed, and subjected to stability tests under the following conditions: sealed storage at 80°C for 1 day, and open storage at 25°C/60% RH and 40°C/75% RH for 1 month, respectively. Solid samples separated under different conditions were subjected to XRPD to measure crystal form to evaluate physical stability, and HPLC to measure chemical purity to evaluate chemical stability. […]

[6] = Solubility test (suspension equilibrated at 37°C, content by HPLC); settings: for Solubility, FaSSIF: FaSSIF (fasted state simulated intestinal fluid); for Solubility, FaSSIF / Solubility, SGF: 37°C; for Solubility, SGF: SGF (simulated gastric fluid); for 24-hour solubility relative to LOQ: purified water and pH 1 buffer medium
[7] = Initial (baseline of stability test)

SMILES | Hygroscopic weight gain at 25°C/80% RH (%) [1] [%] | Crystal form change after DVS test [1] | hygroscopicity [1] | Average bulk density [2] [g/mL] | Average tap density [2] [g/mL] | Bulk density [2] | Tap density [2] | Average repose angle (°) [3] [°] | Repose angle (°) [3] | crystal form after grinding [4] | crystal form after tableting [4] | Crystal form change ([5]; 25°C/60% RH/open/1 month) | Purity (area%) ([5]; 25°C/60% RH/open/1 month) | Crystal form change ([5]; 40°C/75% RH/open/1 month) | Purity (area%) ([5]; 40°C/75% RH/open/1 month) | Crystal form change ([5]; 80°C/sealed/1 day) | Purity (area%) ([5]; 80°C/sealed/1 day) | Purity (area%) [5, 7] [area%] | crystal form transformation (XRPD) [5] | Solubility, FaSSIF ([6]; 1 hour, 60 min) [µg/mL] | also measured
CC(C)=CCC[C@](C)(O)[C@H]1CC[C@]2(C)[C@@H]1[C@H](O)C[C@@H]1[C@@]3(C)CC[C@H](O)C(C)(C)[C@@H]3CC[C@]12C [Crystal form A, 20(S)-protopanaxadiol] | 0.5763 | Unchanged | slight hygroscopicity | 0.43 | 0.52 | 0.44 g/mL and 0.46 g/mL and 0.40 g/mL | 0.48 g/mL and 0.56 g/mL and 0.51 g/mL | 20.5 | 21.2 ° and 19.0 ° and 21.4 ° | transformed into amorphous form | did not undergo crystal form transformation | No | 97.20 | No | 97.18 | No | 97.20 | 97.21 | did not undergo crystal form transformation | 70 (≈ 152 µM) | chemical purity (HPLC) after storage ([5]; under three conditions): did not show a significant decrease; solubility at 2 h (physchem; fassif): 73 µg/mL (≈ 158 µM); solubility at 4 h (physchem; fassif): 72 µg/mL (≈ 156 µM); solubility at 4 h (physchem; ph 1 buffer, pH 1): 0.11 µg/mL (≈ 0.239 µM); solubility at 24 h (physchem; ph 1 buffer, pH 1): 0.15 µg/mL (≈ 0.326 µM); solubility at 1 h (physchem; sgf (simulated gastric fluid)): 20 µg/mL (≈ 43.4 µM); solubility at 2 h (physchem; sgf (simulated gastric fluid)): 21 µg/mL (≈ 45.6 µM); solubility at 4 h (physchem; sgf (simulated gastric fluid)): 17 µg/mL (≈ 36.9 µM); solubility at 24 h (physchem; sgf (simulated gastric fluid)): 11 µg/mL (≈ 23.9 µM); solubility at 24 h (physchem; water): 0.13 µg/mL (≈ 0.282 µM); solubility at 24 h (physchem; water and ph 1 buffer, pH 1): 0.13 to 0.15 µg/mL (≈ 0.282 to 0.326 µM); Solubility, FaSSIF ([6]; 24 hours, 1440 min): 120 µg/mL (≈ 260 µM); solubility in SGF, comparison among crystal forms [6]: no significant difference; solubility in FaSSIF, comparison with crystal form B [6]: higher than that of the crystal form B
CC(C)=CCC[C@](C)(O)[C@H]1CC[C@]2(C)[C@@H]1[C@H](O)C[C@@H]1[C@@]3(C)CC[C@H](O)C(C)(C)[C@@H]3CC[C@]12C [Crystal form B, 20(S)-protopanaxadiol] | 0.2227 | Unchanged | slight hygroscopicity | 0.21 | 0.25 | 0.22 g/mL and 0.21 g/mL | 0.25 g/mL and 0.24 g/mL and 0.26 g/mL | 24.2 | 25.0 ° and 24.7 ° and 22.8 ° | transformed into amorphous form | did not undergo crystal form transformation | No | 97.17 | No | 97.15 | No | 97.18 | 97.20 | did not undergo crystal form transformation | 34 (≈ 73.8 µM) | crystallinity degree after tableting [4]: decreased; chemical purity (HPLC) after storage ([5]; under three conditions): did not show a significant decrease; Solubility, FaSSIF ([6]; 2 hours, 120 min): 39 µg/mL (≈ 84.6 µM); Solubility, FaSSIF ([6]; 4 hours, 240 min): 42 µg/mL (≈ 91.2 µM); Solubility, FaSSIF ([6]; 24 hours, 1440 min): 42 µg/mL (≈ 91.2 µM); solubility in SGF, comparison among crystal forms [6]: no significant difference; Solubility, SGF ([6]; 1 hour, 60 min): 18 µg/mL (≈ 39.1 µM); Solubility, SGF ([6]; 2 hours, 120 min): 19 µg/mL (≈ 41.2 µM); Solubility, SGF ([6]; 4 hours, 240 min): 18 µg/mL (≈ 39.1 µM); Solubility, SGF ([6]; 24 hours, 1440 min): 16 µg/mL (≈ 34.7 µM); 24-hour solubility relative to LOQ ([6]; 24 hours): lower than LOQ
CC(C)=CCC[C@](C)(O)[C@H]1CC[C@]2(C)[C@@H]1[C@H](O)C[C@@H]1[C@@]3(C)CC[C@H](O)C(C)(C)[C@@H]3CC[C@]12C [Crystal form D, 20(S)-protopanaxadiol] | 0.3863 | Unchanged | slight hygroscopicity | 0.14 | 0.21 | 0.14 g/mL | 0.21 g/mL and 0.20 g/mL | 36.8 | 36.7 ° and 38.2 ° and 35.5 ° | transformed into amorphous form | did not undergo crystal form transformation | No | 93.75 | No | 93.00 | No | 94.04 | 96.01 | did not undergo crystal form transformation | 110 (≈ 239 µM) | crystallinity degree after tableting [4]: decreased; chemical purity (HPLC) after storage ([5]; open storage at 25°C/60% RH and 40°C/75% RH for 1 month): slightly decreased; purity (HPLC) after storage ([5]; sealed storage at 80°C for 1 day): slightly decreased; solubility at 2 h (physchem; water): 0.13 µg/mL (≈ 0.282 µM); Solubility, FaSSIF ([6]; 2 hours, 120 min): 72 µg/mL (≈ 156 µM); Solubility, FaSSIF ([6]; 4 hours, 240 min): 82 µg/mL (≈ 178 µM); Solubility, FaSSIF ([6]; 24 hours, 1440 min): 100 µg/mL (≈ 217 µM); solubility in SGF, comparison among crystal forms [6]: no significant difference; Solubility, SGF ([6]; 1 hour, 60 min): 21 µg/mL (≈ 45.6 µM); Solubility, SGF ([6]; 2 hours, 120 min): 17 µg/mL (≈ 36.9 µM); Solubility, SGF ([6]; 4 hours, 240 min): 16 µg/mL (≈ 34.7 µM); Solubility, SGF ([6]; 24 hours, 1440 min): 14 µg/mL (≈ 30.4 µM); solubility in FaSSIF, comparison with crystal form B [6]: higher than that of the crystal form B; 24-hour solubility relative to LOQ ([6]; 24 hours): lower than LOQ
